# Assay results as given in patent US5094945A, “Inhibition resistant 5-enolpyruvyl-3-phosphoshikimate synthase, production and use” (priority 1988, dated 1992).
# Key:
# [1] = test system: O=C(O)C1=C[C@@H](OP(=O)(O)O)[C@@H](O)[C@H](O)C1; assay: ES-3-P synthase assay (release of inorganic phosphate), enzyme preparation of glyphosate-resistant mutant CT7; assay type: biochemical, S. typhimurium; settings: other: CT7 mutant enzyme preparation; phosphoenolpyruvate 2.5 × 10^-1 M; 37.0 °C
# Method: (§1) S. typhimurium strains CT7 and STK1 were grown with aeration for 24 hours at 37° C. in M9 broth. Cells were harvested by centrifugation at 4° C., washed twice with M9 salts, resuspended in 0.01 M Tris-HC1 (pH8.2) and sheared with a French press at 20,000 psi. The homogenate was centrifuged at 16,000 g for 40 min and the supernatant treated with 2% protamine sulfate (1.0 ml of 2% protamine sulfate for every 35 mg of protein). The precipitate was removed by centrifugation at 18,000 xg for 35 min, resuspended and used for enzyme assays. Activity of the enzyme was determined by measuring the rate of release of inorganic phosphate (Heinonen and Lahti, Anal. Biochem. (1981) 113:313-317).
# (§2) A typical assay mixture contained 150 μmole maleic acid buffer (pH5.6), 2.88 μmole phosphoenolpyruvate, 4.08 μmole 3-phosphoshikimate and the enzyme fraction in a total volume of 1.5 ml. The reaction was started by addition of the enzyme after pre-incubation of the assay mixture at 37° C. for 5 min. Aliquots were taken at timed intervals and mixed immediately with the reagents for phosphate analysis. The low pH of the reagent (1.25 N H2 SO4) terminated enzyme activity.
# (§3) Resistance to glyphosate mediated by a mutation(s) at the aroA locus could result from altered regulation leading to overproduction of 5-enolpyruvyl-3phosphoshikimate synthase or to a structural alteration of the enzyme. […]
# [2] = test system: O=C(O)C1=C[C@@H](OP(=O)(O)O)[C@@H](O)[C@H](O)C1; assay: ES-3-P synthase assay (release of inorganic phosphate), enzyme preparation of wild type strain STK1; assay type: biochemical, S. typhimurium; settings: other: STK1 wild type enzyme preparation; phosphoenolpyruvate 2.5 × 10^-1 M; 37.0 °C
# Method: as §1, §2
# (§4) Resistance to glyphosate mediated by a mutation(s) at the aroA locus could result from altered regulation leading to overproduction of 5-enolpyruvyl-3phosphoshikimate synthase or to a structural alteration of the enzyme. To distinguish between these two hypotheses in vitro enzyme preparations were assayed from Salmonella strains STK1 and CT7 which are the wild type and mutant strain respectively. 5-Enolpyruvyl-3-phosphoshikimate synthase activities from wild type and glyphosate-resistant mutants differed by Km for 3-phosphoshikimate, Kd for glyphosate, and at high concentration of 3-phosphoshikimate, by specific activity.
# [3] = test system: aroA E. coli strain LC3 harboring pPMG1; assay: Growth kinetics with glyphosate, LC3 harboring pPMG1; assay type: cell-based; settings: 2 μg/ml of glyphosate
# Method: (§5) Glyphosate was added to M9 after autoclaving. For selection experiments, a commercial solution of glyphosate was used. Resistant mutants were isolated by plating bacterial suspensions in M9 broth or on M9 solid medium supplemented with varying amounts of glyphosate. The level of resistance achieved by the mutants was scored by three types of tests: a spot test, consisting of toothpicking a small colony from a non-selective to a selective medium; a streak test, consisting of streaking cells on a selective plate to obtain single colonies; and growth curves, to determine the kinetics of growth in liquid medium supplemented with glyphosate.
# (§6) The growth kinetics of both S. typhimurium and E. coli strains with wild type and mutant aroA locus were investigated.
# [4] = test system: S. typhimurium CT7; assay: Growth in minimal medium supplemented with glyphosate, mutant; assay type: cell-based; settings: Salmonella enterica, read-out: growth inhibition
# Method: as §5
# (§7) The above assays were performed on enzyme preparations obtained from cells grown in minimal medium. To determine whether the enzyme of the glyphosate resistance mutant was differentially regulated during glyphosate induced stress, STK1, the wild type, and CT7 the mutant, were grown in minimal medium supplemented, respectively, with 70 μg/ml and 1000 μg/ml of glyphosate. These conditions give approximately 20-30% growth inhibition. The specific activity of preparations from cells grown in the presence of glyphosate was 10% higher than that found in preparations from cells grown without glyphosate.
# [5] = target: T1, EPSP synthase from the glyphosate-resistant strain of S. typhimurium (Salmonella typhimurium, UniProt P07637, P101S); assay: EPSP synthase activity with inhibitor, bacterial mutant enzyme; assay type: biochemical; settings: pH 7, read-out: EPSP Synthase Activity, % control
# T1 construct: EPSP synthase activities from the glyphosate-resistant strain of S. typhimurium; endogenous in cells; host or cells: glyphosate-resistant strain of S. typhimurium
# T1 sequence (P07637 whole entry P101S): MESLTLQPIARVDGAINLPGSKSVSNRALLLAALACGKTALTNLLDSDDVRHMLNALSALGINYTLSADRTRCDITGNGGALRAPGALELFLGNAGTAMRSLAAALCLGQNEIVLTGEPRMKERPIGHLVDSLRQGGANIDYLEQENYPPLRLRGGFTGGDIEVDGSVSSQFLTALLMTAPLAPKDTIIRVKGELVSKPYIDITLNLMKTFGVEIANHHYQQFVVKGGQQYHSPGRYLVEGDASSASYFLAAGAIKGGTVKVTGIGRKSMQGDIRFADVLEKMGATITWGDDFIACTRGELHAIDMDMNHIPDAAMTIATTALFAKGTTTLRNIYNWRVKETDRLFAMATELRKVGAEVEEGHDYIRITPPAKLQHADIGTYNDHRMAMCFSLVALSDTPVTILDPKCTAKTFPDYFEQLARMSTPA
# Method: (§8) In the next study, the effect of glyphosate and antiserum to bacterial EPSP synthase on EPSP synthase activities from the glyphosate-resistant strain of S. typhimurium, from the wild-type turnip gall and from ocs-aroA turnip gall was studied. Enzyme activity was assayed fluorometrically in the forward direction as described by Boocock and Coggins, supra.
# [6] = target: T2, 5-enolpyruvyl-3-phosphoshikimate synthase from wild type strain STK1 (Salmonella typhimurium, UniProt P07637); assay: ES-3-P synthase assay (release of inorganic phosphate), enzyme preparation of wild type strain STK1; assay type: biochemical, S. typhimurium
# T2 construct: endogenous in cells; host or cells: S. typhimurium strain STK1, French press homogenate, protamine sulfate precipitate
# T2 sequence (P07637 whole entry): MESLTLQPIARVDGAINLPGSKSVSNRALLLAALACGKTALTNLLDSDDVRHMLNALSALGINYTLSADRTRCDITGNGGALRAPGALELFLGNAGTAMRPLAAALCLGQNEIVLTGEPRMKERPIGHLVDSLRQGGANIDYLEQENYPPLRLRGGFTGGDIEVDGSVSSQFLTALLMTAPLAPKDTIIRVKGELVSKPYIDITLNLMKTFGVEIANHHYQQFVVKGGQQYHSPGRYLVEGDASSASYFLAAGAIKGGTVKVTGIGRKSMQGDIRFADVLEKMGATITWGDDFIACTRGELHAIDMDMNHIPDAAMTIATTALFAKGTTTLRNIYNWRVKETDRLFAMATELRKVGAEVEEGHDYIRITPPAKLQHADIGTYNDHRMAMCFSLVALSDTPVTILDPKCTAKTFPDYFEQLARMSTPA
# Method: as §1, §2, §4
# [7] = test system: aroA E. coli strains with pPMG11; assay: Glyphosate resistance of aroA E. coli carrying pPMG11; assay type: cell-based; settings: 5.5 Kb BglII/HindIII Salmonella DNA segment (pPMG11)
# Method: as §5
# To subclone the aroA-Pmg^r gene, plasmid pPMG1 was digested with the restriction endonuclease BglII. […] Plasmid pPMG1 was digested to completion with BglII, ligated in vitro and the DNA transformed into strain LC2 selecting for aroA complementation. Clones were screened and plasmids containing the 10 Kb BglII fragment in both orientations relative to the vector pVK100 were identified. Plasmids pPMG5 and pPMG6 complemented aroA E. coli strains and conferred high levels of glyphosate resistance. Further subcloning was accomplished by digesting plasmid pPMG5 with BglII and HindIII and ligating in vitro. Strain LC2 was transformed and colonies which were aroA+ and kanamycin sensitive were selected. […] This plasmid was designated pPMG11.
# [8] = target: T3, EPSP synthase purified from the mutant glyphosate-resistant strain (Salmonella typhimurium, UniProt P07637, P101S); assay: Fluorimetric EPSP synthase assay, forward direction, purified mutant enzyme; assay type: biochemical, S. typhimurium
# T3 construct: ES-3-P synthase purified from wild-type S. typhimurium and from the mutant glyphosate-resistant strain; endogenous in cells; host or cells: mutant glyphosate-resistant S. typhimurium strain (purified)
# T3 sequence (P07637 whole entry P101S): as the sequence (P07637 whole entry P101S) above
# Method: (§9) In the next study, a comparison of the kinetic parameters at pH 7.0 of ES-3-P synthase purified from wild-type S. typhimurium and from the mutant glyphosate-resistant strain was made. Enzyme activity was assayed fluorometrically in the forward direction as described by Boocock and Coggins, FEBS Letters (1983) 154:127-133.
# [9] = test system: S. typhimurium strain CTF3; assay: Spot test for glyphosate resistance; assay type: cell-based
# Method: as §5
# [10] = target: T4, 5-enolpyruvyl-3-phosphoshikimate synthase from glyphosate-resistant mutant CT7 (Salmonella typhimurium, UniProt P07637, P101S); assay: ES-3-P synthase assay (release of inorganic phosphate), enzyme preparation of glyphosate-resistant mutant CT7; assay type: biochemical, S. typhimurium
# T4 construct: endogenous in cells; host or cells: S. typhimurium strain CT7, French press homogenate, protamine sulfate precipitate
# T4 sequence (P07637 whole entry P101S): as above
# Method: as §1, §2, §3
# [11] = test system: wild type E. coli; assay: Growth kinetics with glyphosate, wild type E. coli; assay type: cell-based
# Method: as §5, §6
# [12] = test system: EPSP synthase from ocs-aroA transformed turnip gall; assay: EPSP synthase activity with inhibitor, ocs-aroA transformed turnip gall extract; assay type: biochemical; settings: pH 7.0, PEP 500 μM, shik 3P 500 μM
# Method: as §8
# [13] = target: T5, EPSP synthase purified from wild type S. typhimurium (Salmonella typhimurium, UniProt P07637); assay: Fluorimetric EPSP synthase assay, forward direction, purified wild type enzyme; assay type: biochemical; settings: pH 7.0, 500 μM shik 3-P, read-out: Ki for glyphosate
# T5 construct: ES-3-P synthase purified from wild-type S. typhimurium; endogenous in cells; host or cells: wild-type S. typhimurium (purified)
# T5 sequence (P07637 whole entry): as the sequence (P07637 whole entry) above
# Method: as §9
# [14] = test system: S. typhimurium Pmg^r mutants (fifteen mutants, incl. CT7); assay: Streak test on M9 medium with glyphosate; assay type: cell-based; settings: streaked on M9 medium
# Method: as §5
# [15] = test system: EPSP synthase from wild type turnip gall; assay: EPSP synthase activity with inhibitor, wild type turnip gall extract; assay type: biochemical; settings: pH 7.0, PEP 500 μM, shik 3P 500 μM
# Method: as §8
# [16] = test system: S. typhimurium STK1; assay: Growth in minimal medium supplemented with glyphosate, wild type; assay type: cell-based; settings: Salmonella enterica, minimal medium with 70 μg/ml glyphosate
# Method: as §5, §7
# [17] = test system: S. typhimurium strain TA831; assay: Colony formation on solid M9 medium with glyphosate; assay type: cell-based; settings: Salmonella enterica, read-out: glyphosate concentration at which no colonies form
# Method: as §5
# [18] = test system: O=C(O)C1=C[C@@H](OP(=O)(O)O)[C@@H](O)[C@H](O)C1; assay: Fluorimetric EPSP synthase assay, forward direction, purified mutant enzyme; assay type: biochemical, S. typhimurium; settings: other: mutant, pH 7.0, 500 μM PEP
# Method: as §9
# [19] = test system: C=C(OP(=O)(O)O)C(=O)O; assay: as above; assay type: biochemical, S. typhimurium; settings: other: mutant, pH 7.0, 500 μM shik 3-P
# Method: as §9
# [20] = test system: O=C(O)C1=C[C@@H](OP(=O)(O)O)[C@@H](O)[C@H](O)C1; assay: Fluorimetric EPSP synthase assay, forward direction, purified wild type enzyme; assay type: biochemical, S. typhimurium; settings: other: wild type, pH 7.0, 500 μM PEP
# Method: as §9
# [21] = test system: C=C(OP(=O)(O)O)C(=O)O; assay: as above; assay type: biochemical, S. typhimurium; settings: other: wild type, pH 7.0, 500 μM shik 3-P
# Method: as §9
molecule,measurement,setting,value
5-enolpyruvyl-3-phosphoshikimate synthase from glyphosate-resistant mutant CT7 (Salmonella enterica subsp. enterica serovar Typhimurium str. LT2; P101S),Km,[1],2800 µM
5-enolpyruvyl-3-phosphoshikimate synthase from wild type strain STK1 (Salmonella enterica subsp. enterica serovar Typhimurium str. LT2),Km,[2],340 µM
"O=C(O)CNCP(=O)(O)O [glyphosate, N-phosphonomethyl glycine]",growth inhibition,[3],not significantly inhibited
same,inhibition at 1000 µg/mL,[4],20 to 30%
same,remaining activity at 100 µM,[5],35%
same,remaining activity at 500 µM,[5],9%
same,activation at 70 µg/mL,"[6]; STK1 grown with 70 μg/ml glyphosate, read-out: increase of ES-3-P synthase specific activity, cells grown with vs without glyphosate",10%
same,Kd,"[6]; STK1 wild type enzyme preparation, read-out: Kd glyphosate",22 µM
same,level of glyphosate resistance conferred,[7],approx. 2 mg/ml
same,Ki,[8],5 µM
same,glyphosate concentration to which the strain was resistant,[9],350 µg/mL
same,Kd,[10],190 µM
same,inhibition at 100 µg/mL,"[11]; Escherichia coli, 100 μg/ml glyphosate, read-out: inhibition of growth rate",40%
same,growth,[11]; one mg/ml glyphosate,no growth was observed
same,"EPSP Synthase Activity, % control",[12]; glyphosate 100 μM,29 % control
same,"EPSP Synthase Activity, % control",[12]; glyphosate 500 μM,9 % control
same,Ki,[13],1.5 µM
same,glyphosate concentration on which colonies formed in 48 hours,[14],2 mg/mL
same,"EPSP Synthase Activity, % control",[15]; glyphosate 100 μM,8 % control
same,"EPSP Synthase Activity, % control",[15]; glyphosate 500 μM,2 % control
same,inhibition at 70 µg/mL,[16],20 to 30%
same,MIC,[17],> 200 µg/mL
EPSP synthase purified from the mutant glyphosate-resistant strain (Salmonella enterica subsp. enterica serovar Typhimurium str. LT2; P101S),Km,[18],1.6 µM
same,Km,[19],22 µM
EPSP synthase purified from wild type S. typhimurium (Salmonella enterica subsp. enterica serovar Typhimurium str. LT2),Km,[20],2.6 µM
same,Km,[21],30 µM
